# Target: T1, Exon1-Q46 protein aggregates (MBP-HTT(1-89)Q46-His(6×)) (Homo sapiens, UniProt P42858, INS38QQQQQQQQQQQQQQQQQQQQQQQQQ)
# T1 construct: MBP-HTT(1-89)Q46-His(6×); MBP (N, cleaved yes); His(6×) (C); made in house
# Experiment: Exon1-Q46 radioligand binding assay (RBA)
# Conditions: displacement of 0.3 nM [3H3-methyl]-5-((5-methoxypyridin-2-yl)methoxy)-2-(pyrazin-2-yl)benzo[d]oxazole; 1 μM Exon1-Q46 aggregates; read-out: Potency Range
# Experimental: Exon1-Q46 Radioligand Binding Assay
# For radioligand binding assays (RBA), MBP-HTT(1-89)Q46-His(6×) (“Exon1-Q46”) protein was generated based on a previous publication (Scherzinger et al. Cell, Vol. 90, 549-558, Aug. 8, 1997). For experiments, 30 μM MBP-Exon1-Q46 was incubated with 150 μg/mL thrombin in assay buffer (150 mM NaCl, 50 mM Tris pH 8.0) and 2 mM CaCl2 for 16 hours at 37° C. Aggregated Exon1-Q46 was pelleted by centrifugation for 5 minutes at 13,000 rpm in a bench top centrifuge and re-dissolved in the same volume of assay buffer. Test compounds were prepared by titration in DMSO at 11 concentrations from 63 μM to 2 nM. For the RBA, Exon1-Q46 protein aggregates and test compounds were pre-incubated in assay buffer for 20 minutes at room temperature, in 100 μL/well in a 96-well plate (pp, round bottom). Then, ligand was added in 50 µL/well and incubated for 60 minutes at 37° C. Final assay concentrations were […] test compound, 1 μM Exon1-Q46 protein (equivalent monomer concentration), and 0.3 nM ligand [^3H3-methyl]-5-((5-methoxypyridin-2-yl)methoxy)-2-(pyrazin-2-yl)benzo[d]oxazole. Samples were transferred onto GF/B filter plates and washed 2× with 200 μL PBS using a Filtermate Harvester. After drying filter plates for 1 hour at 55° C., the back of the plates were sealed with foil and 30 μL/well scintillation fluid (Packard MicroScint 40) added, incubated for 15 minutes in the dark, and counted in a MicroBeta reader. For analysis, replicate data from independent assay plates were normalized towards 0% and 100% inhibition using control wells of vehicle (0% inhibition) and […] unlabelled [^3H3-methyl]-5-((5-methoxypyridin-2-yl)methoxy)-2-(pyrazin-2-yl)benzo[d]oxazole (100% inhibition). IC50 values were determined with a sigmoidal inhibition model with four variables (top, bottom, slope, IC50) in a global fit using the normalized replicate data.
# The results for various example compounds were as provided in the table below (+++<100 nM; ++100-500 nM; +>500 nM; ND: not determined): […]
# T1 sequence (P42858 with tags, fused parts or gaps with the stated changes limits assumed): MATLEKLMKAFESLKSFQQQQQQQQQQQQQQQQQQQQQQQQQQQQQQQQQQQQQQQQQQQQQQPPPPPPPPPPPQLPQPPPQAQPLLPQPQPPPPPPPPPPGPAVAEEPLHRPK
row,Structure (SMILES),IC50
1,"[2H]C([2H])(F)C([2H])([2H])Oc1ccc(COc2cnc3oc(-c4cc(C)ncn4)nc3c2)nc1 [Compound 1-1, 6-((5-(2-Fluoroethoxy-1,1,2,2-d4)pyridin-2-yl)methoxy)-2-(6-methyl-pyrimidin-4-yl)oxazolo[5,4-b]pyridine]",< 100 nM
2,"COc1ccc(COc2cnc3oc(-c4cc(C)ncn4)nc3c2)nc1 [Compound 4-1, 4-{6-[(5-Methoxypyridin-2-yl)methoxy]-[1,3]oxazolo[5,4-b]pyridin-2-yl}-6-methylpyrimidine]",< 100 nM
3,"Cc1cc(-c2nc3cc(OCc4ccc(OCCF)cn4)cnc3o2)ncn1 [Compound 5-1, 6-((5-(2-Fluoroethoxy)pyridin-2-yl)methoxy)-2-(6-methylpyrimidin-4-yl) oxazolo[5,4-b]pyridine]",< 100 nM
4,"C=CCOc1ccc(COc2cnc3oc(-c4cc(C)ncn4)nc3c2)nc1 [Compound 5-2, 6-((5-(Allyloxy)pyridin-2-yl)methoxy)-2-(6-methylpyrimidin-4-yl) oxazolo[5,4-b]pyridine]",< 100 nM
5,"COc1ccc(COc2cnc3oc(-c4cc(OCCF)ncn4)nc3c2)nc1 [Compound 3-1, 4-(2-Fluoroethoxy)-6-{6-[(5-methoxypyridin-2-yl)methoxy]-[1,3]oxazolo[5,4-b]pyridin-2-yl}pyrimidine]",< 100 nM
6,"Cc1cc(-c2nc3cc(OCc4ccc(OCF)cn4)cnc3o2)ncn1 [Compound 5-3, 6-((5-(Fluoromethoxy)pyridin-2-yl)methoxy)-2-(6-methylpyrimidin-4-yl) oxazolo[5,4-b]pyridine]",< 100 nM

# The remaining lines, values ahead:
row,IC50,Structure (SMILES)
1,< 100 nM,COc1ccc(COc2cnc3oc(-c4ccnc(C)n4)nc3c2)nc1 [Compound 2-1]
2,< 100 nM,"Cc1ccc(S(=O)(=O)OCCOc2ccc(COc3cnc4oc(-c5cc(C)ncn5)nc4c3)nc2)cc1 [Compound 1-2, 2-((6-(((2-(6-Methylpyrimidin-4-yl)oxazolo[5,4-b]pyridin-6-yl)oxy)-methyl)pyridin-3-yl)oxy)ethyl 4-methylbenzenesulfonate]"
3,< 100 nM,"COc1cnc(COc2cnc3oc(-c4cc(C)ncn4)nc3c2)c(F)c1 [Compound 1-3, 6-((3-Fluoro-5-methoxypyridin-2-yl)methoxy)-2-(6-methylpyrimidin-4-yl)oxazolo[5,4-b]pyridine]"

# From US12606570B2, “Deuterated compounds and imaging agents for imaging huntingtin protein” (CHDI Foundation, Inc., priority 2021, dated 2026)
